From paper PMC5712521, “Dendrogenin A drives LXR to trigger lethal autophagy in cancers” (Nature Communications, 2017)

What was measured:
[1] = tested on: AML cells; assay: Immunoblot of caspase-3 and PARP in AML cells; assay type: cell-based, human; conditions: 24 h
Protocol: Immunoblotting was carried out as described previously. Proteins were separated on SDS-PAGE gels, electro-transferred onto polyvinylidene difluoride membranes and incubated overnight at 4 °C with the following antibodies: anti-Atg3, anti-Atg5 (D1G9), anti-Atg7 (D12B11), anti-Beclin (D40C5), anti-caspase-3 (Cell Signaling), anti-Bcl-2 (Millipore), anti-Bax (Millipore), anti-LC3 (Sigma-Aldrich), anti-LXRα (SantaCruz), anti-LXRβ (SantaCruz), anti-Nur77 (Active motif), anti-NOR1 (R&D systems), anti-PARP (Cell Signaling), anti-Vps34 (Cell Signaling), or anti-Actin (Millipore). For visualization, an ECL plus kit (Amersham Biosciences) was used, and chemiluminescence was measured by autoradiography (Supplementary Fig. 9). Specific bands were quantified with ImageQuant software.
Supplementary Fig. 6. […]
AML cells treated with DDA for 24 h in the absence or presence of 50 µM z- VAD-fmk (a
caspase inhibitor). j Effect of z-VAD-fmk on DDA-induced c ytotox icit y in KG1 and HL60 cells. […]
Images are
representative of 3 independent experim ents.

[2] = tested on: WM-266-4 cells; assay: Clonogenicity inhibition; assay type: cell-based; conditions: Homo sapiens; WM-266-4 (H); 72 h; read-out: Clono IC50
Description: Supplementary Fig. 1. a DDA inhibited m elanom a colony form ation. Melanom a cells were […]
a 0.5% solution of crystal violet in water and analyzed by microscopy. Images are representative of 5 independent experiments. b Evaluation of DDA-induced cytotoxicity (cytotox) and clonogenicity (clono) inhibition in a subset of human (H) and mouse (M) m elanom a cell lines. T he BRaf status in m elanom a cells lines is shown. […]

[3] = tested on: KG1 tumors; assay: Subcutaneous KG1 tumor xenograft; assay type: in vivo, mice
Protocol: Exponentially growing cells were harvested, washed twice in PBS then resuspended in PBS. SKMEL-28, shSKMEL-28 clones (5 × 10^6 cells) and B16F10 (3 × 10^5) cells were injected subcutaneously (s.c.) into the flank of nude mice. HL60, KG1 and shKG1-clones (5 × 10^6) were inoculated s.c. into the flanks of NOD/SCID mice. When tumors were palpable, animals (n = 10–20 mice per group, as indicated) were randomized to receive either DDA (20 mg/kg) intraperitoneally (i.p.) or 40 mg/kg by oral gavage (p.o), once a day, or vehicle solvent for the indicated time. Animals were examined daily and body weights were measured twice a week. In all experiments, tumor volume was determined by direct measurement with a caliper and was calculated using the formula (width^2 × length)/2. At the end of experiments, mice were sacrificed and tumors were excised and divided for intra-tumoral DDA quantification, immunoblotting, or immunohistochemistry analyses. […]
(n=16- 20 mice/group) engrafted with KG1 cells or HL60 cells were treated with DDA (20 mg/kg/day, i.p.) or solvent vehicle (control). Tumor growth was monitored over time and was analyzed for significance using repeated measures ANOVA (***P<0.001). The mean tumor volumes ± SEM are shown. e Average tumor weight at the end of the experiments in d. *P<0.5, **P<0.01, ANOVA. f Mean tumor volumes measured at the end of the experiments for HL60 and KG1 graf ted into NOD/SCID or NMRI-Fo x1 -nude mice treated with DDA (40 mg/kg/day, p.o. or 20 mg/kg/day, i.p.) or solvent vehicle (control) (n=10- 20 mice per group). Values represent the means ± S.E.M. (**P<0.01, ***P<0.001, ANOVA). g Histochemical analysis of the expression of LC3 and P62 in HL60 tumor sections isolated from NOD/SCID mice treated or not with DDA (20 mg/kg/day, i.p.). h Quantification of LC3 punctate cells in shCTRL and shLXRβ KG1 tumors. i Quantification of DDA levels in tumors 4 h after the final administration of DDA. j Box plot of TCGA RNA-seq data from patients with melanoma showing that LXRβ is the predominant LXR isoform expressed. […]

[4] = tested on: B16F10 tumors; assay: B16F10 melanoma tumors in mice; assay type: in vivo; conditions: mouse B16F10; i.p. 20 mg/kg/day
Protocol: Exponentially growing cells were harvested, washed twice in PBS then resuspended in PBS. SKMEL-28, shSKMEL-28 clones (5 × 10^6 cells) and B16F10 (3 × 10^5) cells were injected subcutaneously (s.c.) into the flank of nude mice. HL60, KG1 and shKG1-clones (5 × 10^6) were inoculated s.c. into the flanks of NOD/SCID mice. When tumors were palpable, animals (n = 10–20 mice per group, as indicated) were randomized to receive either DDA (20 mg/kg) intraperitoneally (i.p.) or 40 mg/kg by oral gavage (p.o), once a day, or vehicle solvent for the indicated time. Animals were examined daily and body weights were measured twice a week. In all experiments, tumor volume was determined by direct measurement with a caliper and was calculated using the formula (width^2 × length)/2. At the end of experiments, mice were sacrificed and tumors were excised and divided for intra-tumoral DDA quantification, immunoblotting, or immunohistochemistry analyses.

## CC(C)CCC[C@@H](C)[C@H]1CC[C@H]2[C@@H]3C[C@@H](NCCc4cnc[nH]4)[C@@]4(O)C[C@@H](O)CC[C@]4(C)[C@H]3CC[C@]12C [DDA, Dendrogenin A]
[1]; 5 µM DDA + 50 µM z-VAD-fmk
  cleaved PARP, densitometry: 1.9
  cleaved casp 3, densitometry: 0.5
[1]; 5 µM DDA, without z-VAD-fmk
  cleaved PARP, densitometry: 6.1
  cleaved casp 3, densitometry: 4.3
[1]; 10 µM DDA + 50 µM z-VAD-fmk
  cleaved PARP, densitometry: 6.1
  cleaved casp 3, densitometry: 0.8
[1]; 10 µM DDA, without z-VAD-fmk
  cleaved PARP, densitometry: 10.8
  cleaved casp 3, densitometry: 5.2
[2]
  IC50: 1200 ± 400 nM
[3]; NOD/SCID mice, DDA i.p. 20mg/kg/d (control 1249±137)
  Tumor volume at the end of the experiment: 618±55 mm3
[3]; NOD/SCID mice, DDA p.o. 40mg/kg/d (control 1249±137)
  Tumor volume at the end of the experiment: 400±68 mm3
[3]; mice, DDA i.p. 20mg/kg/d (control 1134±389)
  Tumor volume at the end of the experiment: 443±62 mm3
[4]
  tumor growth: significantly reduced the growth
